Experimental data: patent US10517889B2, “Modulators of SMAD7 expression” (Ionis Pharmaceuticals, Inc., priority 2017, dated 2019)

Columns and labels:
[1] = Oligonucleotide concentration in liver and colon by LC-MS/MS after subcutaneous administration in CD-1 mice (Example 6); format: in vivo; details: 50 mg/kg subcutaneously twice a week for 7 weeks, 48 hours after the last dose
Protocol: Groups of 8-9 week old male CD-1 mice were injected subcutaneously twice a week for 7 weeks with 50 mg/kg of Ionis oligonucleotides (100 mg/kg/week dose). Each group contained 4 mice. One group of male CD-1 mice was injected subcutaneously twice a week for 7 weeks with PBS. Plasma was collected for analysis on day 28.
Oligonucleotide concentrations in the liver and colon were analyzed using LC-MS/MS method.

[2] = system: mouse Smad7 mRNA; experiment: Pharmacology: mouse Smad7 mRNA expression in liver, kidney, duodenum, ileum and colon after subcutaneous administration in CD-1 mice (Example 6); format: in vivo; details: 50 mg/kg subcutaneous twice weekly for 7 weeks, normalized to GAPDH
Procedure, shortened: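 Male CD-1 mice, 8-9 weeks old, got 50 mg/kg oligonucleotide subcutaneously twice weekly (100 mg/kg/week) for 7 weeks, with PBS controls; n=4 per group. At necropsy, Smad7 mRNA in liver, kidney, duodenum, ileum and colon was measured by RT-PCR (probe set HTS7555), normalized to GAPDH; one-way ANOVA with Dunnett's test.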

[3] = Blood chemistry markers after oral gavage in CD-1 mice (Example 7); format: in vivo; details: 500 mg/kg oral gavage once daily for 4 weeks, day 30
Protocol: The objective of this study was to evaluate the tolerability and pharmacodynamics of select Ionis human SMAD7 antisense oligonucleotides in CD-1 mice following 4 weeks of treatment. The mice were administered oligonucleotides by oral gavage.
(§1) Groups of 7-8 week old male CD-1 mice were given an oral gavage dose once daily for 4 weeks of 500 mg/kg of Ionis SMAD7 oligonucleotides. Each group contained 8 mice. One group of male CD-1 mice was administered saline by oral gavage daily.
Levels of transaminases, albumin, and BUN were measured using a Toshiba 200FR NEO chemistry analyzer (Toshiba Co., Japan).

[4] = Body and organ weights after oral gavage in CD-1 mice (Example 7); format: in vivo; details: 500 mg/kg oral gavage once daily for 4 weeks, end of study
Protocol: as §1
Final body weights were measured at the end of the study. There was no significant difference in the body weight of the mice treated with antisense oligonucleotide compared to the control.
None of the Ionis SMAD7 oligonucleotides caused any changes in organ weights outside the expected range for antisense oligonucleotides.

[5] = Hematology assays after oral gavage in CD-1 mice (Example 7); format: in vivo; parameters: RBC: unit not given here; details: 500 mg/kg oral gavage once daily for 4 weeks
Protocol: as §1
Blood obtained from all mouse groups was measured by an ADVIA2120i hematology analyzer (Siemens, USA) for measurements of the various blood cells, as well as other hematology markers. None of the Ionis SMAD7 oligonucleotides caused changes in the levels of any of the hematology markers outside the expected range for antisense oligonucleotides.

[6] = Body and organ weights after subcutaneous administration in beagle dogs (Example 8); format: in vivo; details: 30 mg/kg subcutaneous days 1, 3, 5, 8, 15, 22, 29, end of study
Protocol: (§2) There were 4 animals per group.
Body weights as well as kidney, spleen, liver (with gall bladder), mesenteric lymph node, heart, and thymus weights were measured at the end of the study. […] Ionis SMAD7 oligonucleotides that caused any changes in organ weights outside the expected range for antisense oligonucleotides were excluded from further studies.

[7] = Oligonucleotide concentration in tissues by LC-MS/MS after subcutaneous administration in beagle dogs (Example 8); format: in vivo; details: 30 mg/kg subcutaneous, 48 hours after the last dose
Protocol: as §2
Oligonucleotide concentrations of both ION 830025 and ION 798781 were detected in various tissues by LC-MS/MS analysis. The results are presented below, expressed as μg/g tissue. The data was collected 48 hours after the last dose.

[8] = Plasma chemistry markers after subcutaneous administration in beagle dogs (Example 8); details: 30 mg/kg subcutaneous days 1, 3, 5, 8, 15, 22, 29, plasma at day 31
Protocol: Groups of 24-25 week old male beagle dogs were injected subcutaneously with 30 mg/kg ION Ionis oligonucleotide. There were 4 animals per group. Dogs were injected every two days for the first week (day 1, 3, and 5) and once weekly thereafter (days 8, 15, 22, and 29). A control group of dogs received subcutaneous injections of PBS. Dogs were sacrificed on day 31 approximately 48 hours after the final dose and organs and plasma were harvested for further analysis.
To evaluate the effect of Ionis SMAD7 oligonucleotides on liver and kidney function, plasma levels of transaminases, albumin, creatine and BUN were measured using an automated clinical chemistry analyzer (Toshiba 200FR Neo chemistry analyzer, Toshiba Co., Japan).

[9] = system: human peripheral blood mononuclear cells (PBMCs); experiment: Human PBMC activation assay, cytokine levels (IL-10, IL-6, MCP-1, TNF-α) in supernatant after 24 hours (Example 9); details: human PBMC supernatant after 24 hours

Q: What does the source list for “830037 (antisense CTATTGGCTGATCTGG; 3-10-3 cEt gapmer, further chemistry not given here) [compound 830037]”?
A: Oligonucleotide concentration, Colon [1]: 24 μg/g tissue; Oligonucleotide concentration, Liver [1]: 97 μg/g tissue; % inhibition of Smad7 mRNA expression (compared to control), Kidney [2]: 7%; % inhibition of Smad7 mRNA expression (compared to control), Liver [2]: 24%; ALT [3]: 62 IU/L; AST [3]: 94 IU/L; Albumin [3]: 3.3 g/dL; BUN [3]: 26 mg/dL; Bilirubin [3]: 0.3 mg/dL; Body weight [4]: 35 g; Heart weight [4]: 0.17 g; Kidneys weight [4]: 0.69 g; Liver with gallbladder weight [4]: 1.93 g; Spleen weight [4]: 0.10 g; Basophils [5]: 0.01 10^3/μL; Eosinophils [5]: 0.15 10^3/μL; Hematocrit [5]: 53.4%; Hemoglobin [5]: 15.4 g/dL; Lymphocytes [5]: 73.2%; MCH [5]: 15.4 pg; MCHC [5]: 28.9 g/dL; MCV [5]: 53.2 fL; Monocytes [5]: 0.13 10^3/μL; Neutrophils [5]: 19.3%; RBC [5]: 10.1; Reticulocytes [5]: 3.1%; WBC [5]: 4.3 10^3/μL; platelets [5]: 1122 10^3/μL; Body weight [6]: 6437 g; Heart weight [6]: 51.9 g; Kidney weight [6]: 36.7 g; Liver weight [6]: 204.1 g; Mesenteric LN weight [6]: 9.0 g; Spleen weight [6]: 23.7 g; Thymus weight [6]: 6.3 g; Full length oligonucleotide, Distal colon [7]: 46 µg/g; Full length oligonucleotide, Duodenum [7]: 55 µg/g; Full length oligonucleotide, Ileum [7]: 67 µg/g; Full length oligonucleotide, Kidney [7]: 894 µg/g; Full length oligonucleotide, Liver [7]: 521 µg/g; Full length oligonucleotide, Proximal colon [7]: 86 µg/g; ALT [8]: 3091 IU/L; AST [8]: 1132 IU/L; Albumin [8]: 3.7 g/dL; BUN [8]: 21.2 mg/dL; Bilirubin [8]: 0.8 mg/dL; Creatine [8]: 1.0 mg/dL; Levels of IL-6 ([9]; 0.0128 μM oligonucleotide): 3.8 pg/mL; Levels of IL-10 ([9]; 0.0128 μM oligonucleotide): 1.6 pg/mL; Levels of MCP-1 ([9]; 0.0128 μM oligonucleotide): 369.4 pg/mL; Levels of TNF-α ([9]; 0.0128 μM oligonucleotide): 3.2 pg/mL; Levels of IL-6 ([9]; 0.064 μM oligonucleotide): 9.8 pg/mL; Levels of IL-10 ([9]; 0.064 μM oligonucleotide): 3.2 pg/mL; Levels of MCP-1 ([9]; 0.064 μM oligonucleotide): 557.1 pg/mL; Levels of TNF-α ([9]; 0.064 μM oligonucleotide): 4.1 pg/mL; Levels of IL-6 ([9]; 0.32 μM oligonucleotide): 26.7 pg/mL; Levels of IL-10 ([9]; 0.32 μM oligonucleotide): 8.2 pg/mL; Levels of MCP-1 ([9]; 0.32 μM oligonucleotide): 1284.2 pg/mL; Levels of TNF-α ([9]; 0.32 μM oligonucleotide): 8.2 pg/mL; Levels of IL-6 ([9]; 1.6 μM oligonucleotide): 38.6 pg/mL; Levels of IL-10 ([9]; 1.6 μM oligonucleotide): 9.5 pg/mL; Levels of MCP-1 ([9]; 1.6 μM oligonucleotide): 1085.9 pg/mL; Levels of TNF-α ([9]; 1.6 μM oligonucleotide): 9.2 pg/mL; Levels of IL-6 ([9]; 8 μM oligonucleotide): 38.4 pg/mL; Levels of IL-10 ([9]; 8 μM oligonucleotide): 7.1 pg/mL; Levels of MCP-1 ([9]; 8 μM oligonucleotide): 1917.1 pg/mL; Levels of TNF-α ([9]; 8 μM oligonucleotide): 11.1 pg/mL; Levels of IL-6 ([9]; 40 μM oligonucleotide): 58.7 pg/mL; Levels of IL-10 ([9]; 40 μM oligonucleotide): 4.7 pg/mL; Levels of MCP-1 ([9]; 40 μM oligonucleotide): 3414.8 pg/mL; Levels of TNF-α ([9]; 40 μM oligonucleotide): 16.6 pg/mL; Levels of IL-6 ([9]; 200 μM oligonucleotide): 71.2 pg/mL; Levels of IL-10 ([9]; 200 μM oligonucleotide): 3.8 pg/mL; Levels of MCP-1 ([9]; 200 μM oligonucleotide): 2449.3 pg/mL; Levels of TNF-α ([9]; 200 μM oligonucleotide): 18.9 pg/mL

Q: Which results are given for “798781 (CGTAAGATTCACAGCA; 3-10-3 cEt gapmer, further chemistry not given here) [compound 798781]”?
A: Oligonucleotide concentration, Colon [1]: 63 μg/g tissue; Oligonucleotide concentration, Liver [1]: 312 μg/g tissue; % inhibition of Smad7 mRNA expression (compared to control), Kidney [2]: 18%; % inhibition of Smad7 mRNA expression (compared to control), Liver [2]: 28%; ALT [3]: 43 IU/L; AST [3]: 73 IU/L; Albumin [3]: 3.2 g/dL; BUN [3]: 25 mg/dL; Bilirubin [3]: 0.3 mg/dL; Body weight [4]: 35 g; Heart weight [4]: 0.17 g; Kidneys weight [4]: 0.64 g; Liver with gallbladder weight [4]: 1.86 g; Spleen weight [4]: 0.09 g; Basophils [5]: 0.02 10^3/μL; Eosinophils [5]: 0.26 10^3/μL; Hematocrit [5]: 52.0%; Hemoglobin [5]: 15.2 g/dL; Lymphocytes [5]: 74.0%; MCH [5]: 15.1 pg; MCHC [5]: 29.1 g/dL; MCV [5]: 51.7 fL; Monocytes [5]: 0.18 10^3/μL; Neutrophils [5]: 18.0%; RBC [5]: 10.1; Reticulocytes [5]: 3.0%; WBC [5]: 5.7 10^3/μL; platelets [5]: 1099 10^3/μL; Body weight [6]: 6661 g; Heart weight [6]: 53.4 g; Kidney weight [6]: 40.0 g; Liver weight [6]: 242.9 g; Mesenteric LN weight [6]: 7.8 g; Spleen weight [6]: 26.4 g; Thymus weight [6]: 6.0 g; Full length oligonucleotide, Distal colon [7]: 68 µg/g; Full length oligonucleotide, Duodenum [7]: 97 µg/g; Full length oligonucleotide, Ileum [7]: 177 µg/g; Full length oligonucleotide, Kidney [7]: 3300 µg/g; Full length oligonucleotide, Liver [7]: 964 µg/g; Full length oligonucleotide, Proximal colon [7]: 73 µg/g; ALT [8]: 32 IU/L; AST [8]: 45 IU/L; Albumin [8]: 3.0 g/dL; BUN [8]: 19.4 mg/dL; Bilirubin [8]: 0.2 mg/dL; Creatine [8]: 0.9 mg/dL; Levels of IL-6 ([9]; 0.0128 μM oligonucleotide): 3.4 pg/mL; Levels of IL-10 ([9]; 0.0128 μM oligonucleotide): 2.2 pg/mL; Levels of MCP-1 ([9]; 0.0128 μM oligonucleotide): 332.9 pg/mL; Levels of TNF-α ([9]; 0.0128 μM oligonucleotide): 2.6 pg/mL; Levels of IL-6 ([9]; 0.064 μM oligonucleotide): 4.9 pg/mL; Levels of IL-10 ([9]; 0.064 μM oligonucleotide): 2.0 pg/mL; Levels of MCP-1 ([9]; 0.064 μM oligonucleotide): 387.0 pg/mL; Levels of TNF-α ([9]; 0.064 μM oligonucleotide): 3.3 pg/mL; Levels of IL-6 ([9]; 0.32 μM oligonucleotide): 6.9 pg/mL; Levels of IL-10 ([9]; 0.32 μM oligonucleotide): 2.3 pg/mL; Levels of MCP-1 ([9]; 0.32 μM oligonucleotide): 483.1 pg/mL; Levels of TNF-α ([9]; 0.32 μM oligonucleotide): 3.8 pg/mL; Levels of IL-6 ([9]; 1.6 μM oligonucleotide): 12.3 pg/mL; Levels of IL-10 ([9]; 1.6 μM oligonucleotide): 3.9 pg/mL; Levels of MCP-1 ([9]; 1.6 μM oligonucleotide): 597.2 pg/mL; Levels of TNF-α ([9]; 1.6 μM oligonucleotide): 5.1 pg/mL; Levels of IL-6 ([9]; 8 μM oligonucleotide): 18.1 pg/mL; Levels of IL-10 ([9]; 8 μM oligonucleotide): 2.9 pg/mL; Levels of MCP-1 ([9]; 8 μM oligonucleotide): 582.7 pg/mL; Levels of TNF-α ([9]; 8 μM oligonucleotide): 6.5 pg/mL; Levels of IL-6 ([9]; 40 μM oligonucleotide): 20.7 pg/mL; Levels of IL-10 ([9]; 40 μM oligonucleotide): 1.4 pg/mL; Levels of MCP-1 ([9]; 40 μM oligonucleotide): 565.8 pg/mL; Levels of TNF-α ([9]; 40 μM oligonucleotide): 6.3 pg/mL; Levels of IL-6 ([9]; 200 μM oligonucleotide): 28.0 pg/mL; Levels of IL-10 ([9]; 200 μM oligonucleotide): 0.6 pg/mL; Levels of MCP-1 ([9]; 200 μM oligonucleotide): 61.3 pg/mL; Levels of TNF-α ([9]; 200 μM oligonucleotide): 4.0 pg/mL
